B1: PDGF-BB: recombinant human PDGF-BB (BioVision), pro-proliferative factor (protein, UniProt P01127 82-190, looked up)
Platelet-derived growth …: SLGSLTIAEPAMIAECKTRTEVFEISRRLIDRTNANFLVWPPCVEVQRCSGCCNNRNVQCRPTQVQLRPVQVRKIEIVRKKPIFKKATVTLEDHLACKCETVAAARPVT

Key:
[1] = test system: endogenous GFAP mRNA in T6/lacZ/C1 cells; assay: Real-time RT-PCR for endogenous rat GFAP mRNA in T6/lacZ/C1 cells; assay type: cell-based; details: TGF-β1 1 ng/ml
Protocol: Total RNA was reverse transcribed to cDNA using Taqman's reverse transcription reagent (Cat. # N808-0234A total of […] of RNA in 7.7 μl nuclease-free water was added to 2 μl 10× reverse transcriptase buffer, 4.4 μl 25 mM magnesium chloride, 4 μl deoxyNTP mixtures, 1 μl random hexamers, 0.4 μl RNase inhibitor and 0.5 μl reverse transcriptase (50 U/μl) in a final reaction volume of 20 μl. The reaction was performed for 10 min at 25° C. (annealing), 30 min at 48° C. (cDNA synthesis) and 5 min at 95° C. (enzyme denaturation).
Real-time quantitative PCR was carried out with an ABI 7500 Real Time PCR System (Applied Biosystems, CA, USA). One microliter of sample cDNA was used in each PCR reaction, with the housekeeping β-actin gene as a reference for normalization. The primers and probes for rat β-actin and GFAP were purchased from Taqman's assay-on-demand database. The PCR reaction was performed under a default profile consisting of 50° C. for 2 min (UNG activation), 95° C. for 10 min (enzyme denaturation) and 40 cycles of amplification (denaturation 15 seconds, annealing and extension 60 seconds).
Relative quantitation of the target mRNA was calculated using the comparative threshold cycle (CT) methods as described in the User Bulletin #2 (ABI Prism 7700 Sequence Detection System). CT indicates the fractional cycle number at which the amount of amplified target reaches a fixed threshold within the linear phase of gene amplification. ΔCT, which reflects the difference between CT target and CT β-actin, is inversely correlated to the abundance of mRNA transcripts in the samples. ΔCT for each sample was normalized against control experiment or calibrator and expressed as ΔΔCT. Relative quantitation is given by 2^−ΔΔCT to express the up-regulation or down-regulation of the target gene under the treatments compared to the control.
It was known that GFAP, along with desmin, SMAA, and vimentin, was expressed in the clonal T6 cells (Vogel et al. (2000), J Lipid Res. 41(6):882). Naturally, the endogenous GFAP should be expressed in the T6/lacZ/C1 cells as well. In order to investigate how the endogenous GFAP expression is regulated by TGF-β1 in the T6/lacZ/C1 cells during different time course, we quantified rat GFAP mRNA level using a real-time RT-PCR method. Cells were similarly grown and treated with TGF-β1 (1 ng/ml) for various times (0, 2, 8, 16, 24, 48 and 72 hours), as described for the enzymatic assay experiments above. Total RNA was isolated from different cells and quantified as described in Materials and Methods, and the results were depicted in FIG. 11.

[2] = test system: T6/lacZ/C1 cells (2.2 kb hGFAP-lacZ transgene); assay: X-gal staining of T6/lacZ/C1 cells treated with TGF-β1, PDGF-BB and LPS; assay type: cell-based, rat; details: for X-gal blue staining (β-galactosidase) compared to the untreated: 0.1 to 10 ng/ml, 72 hours, X-gal one hour; for expression of a transgene operably coupled to a hGFAP promoter in HSC cell culture: summary statement
Protocol: A lacZ reporter assay kit for cell staining (InvivoGen, CA, USA) was used to detect the reporter gene activity in both stable and transient transfectants. Development of the blue end product was monitored at different time intervals (15, 30, 60, 90, and 120 minutes). The staining results were documented with a digital camera (DP12) attached to an Olympus inverted bright field microscope (IX51).
(§1) Cells were seeded into 12-well plates in full DMEM and 500 μg/ml Zeocin. Twelve hours prior to the cytokine treatment, medium was changed so that the cells were allowed to grow in low serum (0.5% FBS) DMEM. The cells at a confluence of 70-80% were incubated with various concentrations (0, 0.1, 1 and 10 […]) of recombinant human TGF-β1, PDGF-BB (BioVision, CA, USA) and 0, 0.1, 1 and 10 μg/ml lipopolysaccharide (LPS E. coli, Sigma) respectively for 0, 2, 8, 16, 24, 48 and 72 hours before they were harvested for β-galactosidase activity assay and real-time RT-PCR GFAP assay.
To determine possible induction of GFAP-lacZ expression by molecules with profibrotic and proinflammatory properties in activated HSC the T6/lacZ/C1 cells were treated with TGF-β1, PDGF-BB and LPS respectively at various concentrations (0, 0.1, 1 and 10 ng/ml) in the full DMEM medium for 72 hours. The cells were then stained with X-gal for one hour and photographed. […] In order to obtain truly quantitative data, a solution assay was employed to measure possible up-regulation of β-galactosidase activity by TGF-β1 in experiments below.

[3] = test system: T6/lacZ/C1 cells (2.2 kb hGFAP-lacZ transgene); assay: Quantitative solution assay of β-galactosidase activity in T6/lacZ/C1 cell extracts; assay type: cell-based, rat
Protocol: To quantify the β-galactosidase activity in cell extracts reported in FIGS. 4 to 10, an enzyme assay kit (E2000, Promega, Wis., USA) was used to measure the specific activity of β-galactosidase, according to the manufacturer's instructions in a 96-well format. Briefly, the cells were washed twice with 1×PBS buffer (pH7.4), lysed for 15 minutes at room temperature with the reporter lysis buffer, and harvested using a cell scraper. The total cell extracts were appropriately diluted (5-10 fold), and assayed for the enzyme activity. The specific β-galactosidase activity was expressed in milliunit per milliliter (mU/ml) using a standard curve established from the β-galactosidase standard (provided with the kit). The protein concentration was measured with a BCA protein assay kit (Pierce, Ill., USA), and used to further convert the specific β-galactosidase activity from mU/ml to mU/μg total cellular protein. Six independent experiments were performed for each time and concentration data point.
as §1
A β-galactosidase activity assay kit (Promega, Wis., USA) was used to measure transgene expression level in the T6/lacZ/C1 clone, using the nontransfected T6 as a negative basal control. When grown in the full DMEM medium to 70-80% confluence, the T6/lacZ/C1 cells yielded an average reading of approximately 0.5 mU/μg, about five times of that in normal T6 cells. The basal reading in the T6 cells was not influenced by the addition of cytokines or LPS (data not shown). For comparison purpose, the β-galactosidase activity in a randomly selected C6 clone containing the 2.2 kb hGFAP-lacZ transgene (designated as C6/lacZ/C4) was measured to have an activity of about 2 mU/μg, […] of that in the T6/lacZ/C1 cells. When incubated with TGF-β1 (0 to 10 ng/ml), the C6/lacZ/C4 cells yielded an induction dynamics of 130 to 200% of the untreated control.
To quantify specific transgene response to TGF-β1, we first set up an experiment to assess possible effects that serum concentration and culture duration may have on the transgene expression. T6/lacZ/C1 cells were initially grown in DMEM with high serum (10% FBS), and then some of the cells were starved with a DMEM with low serum (0.5% FBS) for 12 hours prior to the addition of TGF-β1 (1 ng/ml). After incubation for various times (0, 2, 8, 24, 48 and 72 hours), cells were harvested for β-galactosidase activity assay. […] After 72 hours, the level slipped to 58% of the value at 0 hour (P<0.001). The assay results were depicted in FIG. 8.
To further dissect the TGF-β1 contribution to the transgene induction, we treated T6/lacZ/C1 cells grown in low serum with various concentrations of TGF-β1 (0, 0.1, 1, 10 ng/ml) and assayed the enzymatic activity for three time points (24, 48 and 72 hours). The assay results were plotted in FIG. 9. […] When the non-treatment groups were normalized to 1 and the magnitude of induction were plotted for the 10 ng/ml treatment groups at all three time points (FIG. 10), a trend of increasing induction with time was apparent.

Molecule | GFAP mRNA level relative to basal level (normalized to 1) at 0 hour ([1]; 16 hour (P<0.005)) [fold] | GFAP mRNA level relative to basal level (normalized to 1) at 0 hour ([1]; 48 hours) [fold] | GFAP mRNA level relative to basal level (normalized to 1) at 0 hour ([1]; 72 hours) [fold] | GFAP mRNA level relative to basal level at 0 hour ([1]; first 24 hours) | X-gal blue staining (β-galactosidase) compared to the untreated [2] | expression of a transgene operably coupled to a hGFAP promoter in HSC cell culture [2] | induction of β-galactosidase activity vs non-induced ([3]; 1 ng/ml TGF-β1, low serum, 24 hours (P<0.05)) | absolute enzymatic activity (β-galactosidase) ([3]; 10 ng/ml TGF-β1, 72 hours) [mU/μg] | fold induction of β-galactosidase specific activity, non-treatment normalized to 1 ([3]; 10 ng/ml TGF-β1, 72 hours) | induction of β-galactosidase activity vs non-induced ([3]; 10 ng/ml TGF-β1, low serum, 24, 48 and 72 hours (P<0.001)) | transgene expression level ([3]; TGF-β1 1 ng/ml, 0.5% FBS, 2 and 8 hours) | β-galactosidase specific activity at peak ([3]; TGF-β1 1 ng/ml, 0.5% FBS, 24 hour) [mU/μg] | transgene expression level ([3]; TGF-β1 1 ng/ml, 0.5% FBS, 48 hours) | transgene expression level, % of the value at 0 hour ([3]; TGF-β1 1 ng/ml, 0.5% FBS, 72 hours) [%]
TGF-β1: recombinant human TGF-β1 (BioVision), pro-fibrotic factor | 0.5 | 7 | 8.5 | remained steady | more intense blue staining | induced in a dose-dependent manner | induction was seen | 0.43 | nearly two fold | Significant induction | rapidly elevated | 0.52 | dropped to the same level as at 0 hour | 58
B1 |  |  |  |  | less pronounced response | induced in a dose-dependent manner |  |  |  |  |  |  |  | 

Reference: patent US7863251B2, “Hepatic stellate cell specific promoter and uses thereof” (Agency for Science, Technology and Research, priority 2005, dated 2011)
